Patent US20050049285A1, “Dichloropyridyl methyl cyanamidines” (priority 2000, published 2005)

Experiments:
[1] = test system: Erysiphe graminis f. sp. hordei; experiment: Erysiphe-Test (barley)/induction of resistance; assay type: in vivo, Erysiphe graminis f. sp. hordei on barley; conditions: barley plants sprayed at 750 g/ha; inoculated 4 days after treatment; evaluated 7 days after inoculation; 0% = as control, 100% = no infection
Method: Erysiphe-Test (Barley)/Induction of Resistance
To produce a suitable preparation of active compound, 1 part by weight of active compound is mixed with the stated amounts of solvent and emulsifier, and the concentrate is diluted with water to the desired concentration.
To test for resistance-inducing activity, young cereal plants are sprayed with the preparation of active compound at the stated application rate. 4 days after the treatment, the plants are inoculated with spores of Erysiphe graminis f. sp. hordei. The plants are then placed in the greenhouse at 70% relative atmospheric humidity and a temperature of 18 C.
Evaluation is carried out 7 days after the inoculation. 0% means an efficacy which corresponds to that of the control, whereas an efficacy of 100% means that no infection is observed.

Row | melting point | SMILES | Efficacy in % [1]
1 | 160 °C | N#C/N=C/NCc1cc(Cl)nc(Cl)c1 [Example 1, N′-cyano-N-[(2,6-dichloro-4-pyridinyl)methyl]imidoformamide] | 
2 |  | N#C/N=C/NCc1cc(Cl)nc(Cl)c1 [drawing 9] | 100%
3 |  | C/C(=N\C#N)NCc1cc(Cl)nc(Cl)c1 | 95%
4 |  | CC/C(=N\C#N)NCc1cc(Cl)nc(Cl)c1 | 80%
